From publication PMC2529273, “Pharmacological Properties of DOV 315,090, an ocinaplon metabolite” (BMC Pharmacology, 2008)
Values joined by “and” are separate entries in the source; they are usually repeats but may differ in a detail not shown here. Equal entries are not always repeated. Where two headings read alike, the source gives them in different places.

Experiments:
α1β2γ2S GABAA-R [1] = biological target: T1, α1β2γ2S GABAA-R (Rattus norvegicus, UniProt P18508+P62813); test: biochemical; assay type: binding
T1 sequence (P62813 28-455): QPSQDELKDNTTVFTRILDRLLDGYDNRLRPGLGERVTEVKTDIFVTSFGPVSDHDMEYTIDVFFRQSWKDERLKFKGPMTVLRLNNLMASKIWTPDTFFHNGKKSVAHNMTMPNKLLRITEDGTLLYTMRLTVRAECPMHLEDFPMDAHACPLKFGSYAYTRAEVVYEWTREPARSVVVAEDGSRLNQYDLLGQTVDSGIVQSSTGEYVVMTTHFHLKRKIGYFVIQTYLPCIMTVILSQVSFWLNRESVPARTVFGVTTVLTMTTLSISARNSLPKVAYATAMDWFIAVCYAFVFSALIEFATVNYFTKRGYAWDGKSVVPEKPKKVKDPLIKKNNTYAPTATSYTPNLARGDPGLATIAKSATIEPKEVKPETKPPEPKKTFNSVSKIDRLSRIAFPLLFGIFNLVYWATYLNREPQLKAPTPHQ
T1 sequence (P63138 25-474 partner limits assumed): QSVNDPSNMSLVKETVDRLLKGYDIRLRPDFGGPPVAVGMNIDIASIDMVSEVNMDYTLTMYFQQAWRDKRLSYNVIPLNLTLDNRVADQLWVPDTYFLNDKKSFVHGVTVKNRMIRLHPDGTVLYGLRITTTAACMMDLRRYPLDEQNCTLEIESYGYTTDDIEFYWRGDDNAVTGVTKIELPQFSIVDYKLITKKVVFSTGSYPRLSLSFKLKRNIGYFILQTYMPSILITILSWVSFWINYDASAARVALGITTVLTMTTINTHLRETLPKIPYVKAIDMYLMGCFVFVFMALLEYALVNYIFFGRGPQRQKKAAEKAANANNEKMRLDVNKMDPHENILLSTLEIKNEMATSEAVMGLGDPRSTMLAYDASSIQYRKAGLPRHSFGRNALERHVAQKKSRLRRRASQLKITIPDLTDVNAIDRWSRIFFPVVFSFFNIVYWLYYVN
T1 sequence (P18508 39-466): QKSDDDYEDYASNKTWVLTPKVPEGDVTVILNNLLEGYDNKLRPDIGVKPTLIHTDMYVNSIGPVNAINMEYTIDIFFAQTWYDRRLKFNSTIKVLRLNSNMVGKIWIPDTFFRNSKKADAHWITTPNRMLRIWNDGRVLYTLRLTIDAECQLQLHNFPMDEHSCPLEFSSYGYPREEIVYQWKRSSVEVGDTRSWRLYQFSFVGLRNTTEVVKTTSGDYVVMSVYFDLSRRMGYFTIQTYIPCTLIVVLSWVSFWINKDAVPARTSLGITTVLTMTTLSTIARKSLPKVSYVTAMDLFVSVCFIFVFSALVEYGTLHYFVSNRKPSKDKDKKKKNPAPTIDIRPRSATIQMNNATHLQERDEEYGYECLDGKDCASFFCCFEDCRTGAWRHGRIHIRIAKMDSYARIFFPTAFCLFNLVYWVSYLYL
Protocol: (§1) HEK293 cells (CRL 1573, American type Culture Collection, Rockville, MD, USA) were cultured in Dulbecco's modified Eagle's medium (D-MEM, Invitrogen, Carlsbad, CA, USA) supplemented with 10% fetal bovine serum (Invitrogen, Carlsbad, CA, USA) and 1% MEM Non-Essential Amino Acids Solution (Invitrogen, Carlsbad, CA, USA). cDNAs encoding rat GABAA-R subunits were in the following vectors: α1 and α5 in pRc/CMV, α2, α3, γ2S and γ3 in pcDNA3 and β2 in pcDNA1. The cells were transiently transfected (5 μg of each cDNA per 100 mm dish) using FuGene™ (Roche Diagnostics Corporation) at a 3:1 FuGene:DNA ratio. […] Forty-eight hours after transfection, cells were washed with ice-cold PBS, harvested and homogenized. Cell homogenates were centrifuged (100,000 g, 25 min) and washed three times by homogenization in ice-cold PBS buffer followed by centrifugation at 100,000 g for 25 min. The final pellets were stored at -20°C until needed.
(§2) The samples were then diluted with 5 ml of ice-cold buffer and filtered under vacuum through glass-fiber filters (GF/B Whatman). Filters were washed 3 times with 5 ml of buffer and the radioactivity was quantitated by liquid scintillation counting in 5 ml of Ecolite scintillation fluid (ICN). Non-specific binding determined in the presence of 100 μM Ro 15–1788 (Sigma-Aldrich) was subtracted from total binding to calculate specific binding. Data were analyzed by non-linear regression (Prism, Graph-Pad software).

α1β2γ3 GABAA-R = biological target: T2, α1β2γ3 GABAA-R (Rattus norvegicus, UniProt P28473+P62813); test: biochemical; assay type: binding
T2 construct: expressed in transfected cells; host or cells: HEK293 (CRL 1573), transient transfection
T2 sequence (P62813 28-455): as the sequence (P62813 28-455) above
T2 sequence (P63138 25-474 partner limits assumed): as the sequence (P63138 25-474 partner limits assumed) above
T2 sequence (P28473 18-467): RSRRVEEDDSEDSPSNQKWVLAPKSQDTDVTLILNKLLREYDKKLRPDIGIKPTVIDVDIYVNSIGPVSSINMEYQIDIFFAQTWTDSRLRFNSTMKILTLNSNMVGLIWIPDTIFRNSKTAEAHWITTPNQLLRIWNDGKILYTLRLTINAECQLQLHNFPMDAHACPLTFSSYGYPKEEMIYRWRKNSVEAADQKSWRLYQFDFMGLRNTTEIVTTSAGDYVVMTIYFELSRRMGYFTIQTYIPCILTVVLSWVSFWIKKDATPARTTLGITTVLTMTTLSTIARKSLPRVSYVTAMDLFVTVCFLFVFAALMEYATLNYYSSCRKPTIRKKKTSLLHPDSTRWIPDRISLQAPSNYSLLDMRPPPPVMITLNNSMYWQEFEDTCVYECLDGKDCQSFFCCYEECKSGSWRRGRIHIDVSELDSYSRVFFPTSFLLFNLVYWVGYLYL
Protocol: as §1, §2

α2β2γ2S GABAA-R [2] = biological target: T3, α2β2γ2S GABAA-R (Rattus norvegicus, UniProt P18508+P23576); test: biochemical; assay type: binding
T3 sequence (P23576 29-451): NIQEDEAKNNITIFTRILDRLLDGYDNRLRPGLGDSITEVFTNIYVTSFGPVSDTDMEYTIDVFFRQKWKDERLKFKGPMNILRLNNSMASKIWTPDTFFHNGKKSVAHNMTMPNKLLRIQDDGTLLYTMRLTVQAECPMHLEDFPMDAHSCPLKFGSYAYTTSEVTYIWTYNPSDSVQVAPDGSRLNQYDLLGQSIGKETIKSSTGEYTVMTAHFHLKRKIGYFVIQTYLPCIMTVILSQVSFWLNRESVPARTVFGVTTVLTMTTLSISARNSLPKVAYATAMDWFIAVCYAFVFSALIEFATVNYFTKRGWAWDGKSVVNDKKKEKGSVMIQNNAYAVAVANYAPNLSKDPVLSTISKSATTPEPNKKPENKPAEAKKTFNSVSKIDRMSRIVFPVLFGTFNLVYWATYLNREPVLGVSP
T3 sequence (P63138 25-474 partner limits assumed): as the sequence (P63138 25-474 partner limits assumed) above
T3 sequence (P18508 39-466): as the sequence (P18508 39-466) above
Protocol: as §1, §2

α2β2γ3 GABAA-R = biological target: T4, α2β2γ3 GABAA-R (Rattus norvegicus, UniProt P23576+P28473); test: biochemical; assay type: binding
T4 construct: expressed in transfected cells; host or cells: HEK293 (CRL 1573), transient transfection
T4 sequence (P23576 29-451): as the sequence (P23576 29-451) above
T4 sequence (P63138 25-474 partner limits assumed): as the sequence (P63138 25-474 partner limits assumed) above
T4 sequence (P28473 18-467): as the sequence (P28473 18-467) above
Protocol: as §1, §2

α3β2γ2S GABAA-R [3] = biological target: T5, α3β2γ2S GABAA-R (Rattus norvegicus, UniProt P18508+P20236); test: biochemical; assay type: binding
T5 sequence (P20236 29-493): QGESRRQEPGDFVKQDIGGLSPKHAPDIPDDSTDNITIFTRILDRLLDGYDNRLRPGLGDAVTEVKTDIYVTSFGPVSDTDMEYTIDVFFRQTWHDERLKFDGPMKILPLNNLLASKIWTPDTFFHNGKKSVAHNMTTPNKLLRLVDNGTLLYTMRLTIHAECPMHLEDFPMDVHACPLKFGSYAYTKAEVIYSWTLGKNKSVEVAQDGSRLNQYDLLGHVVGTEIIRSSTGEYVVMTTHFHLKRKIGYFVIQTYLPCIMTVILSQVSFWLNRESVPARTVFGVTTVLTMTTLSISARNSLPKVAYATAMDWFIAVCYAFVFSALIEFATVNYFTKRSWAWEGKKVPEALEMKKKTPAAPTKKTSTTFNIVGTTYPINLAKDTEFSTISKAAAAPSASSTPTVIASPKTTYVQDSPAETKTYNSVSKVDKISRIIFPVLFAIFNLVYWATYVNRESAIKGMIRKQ
T5 sequence (P63138 25-474 partner limits assumed): as the sequence (P63138 25-474 partner limits assumed) above
T5 sequence (P18508 39-466): as the sequence (P18508 39-466) above
Protocol: as §1, §2

α5β2γ2S GABAA-R [4] = biological target: T6, α5β2γ2S GABAA-R (Rattus norvegicus, UniProt P18508+P19969); test: biochemical; assay type: binding
T6 sequence (P19969 32-464 limits assumed): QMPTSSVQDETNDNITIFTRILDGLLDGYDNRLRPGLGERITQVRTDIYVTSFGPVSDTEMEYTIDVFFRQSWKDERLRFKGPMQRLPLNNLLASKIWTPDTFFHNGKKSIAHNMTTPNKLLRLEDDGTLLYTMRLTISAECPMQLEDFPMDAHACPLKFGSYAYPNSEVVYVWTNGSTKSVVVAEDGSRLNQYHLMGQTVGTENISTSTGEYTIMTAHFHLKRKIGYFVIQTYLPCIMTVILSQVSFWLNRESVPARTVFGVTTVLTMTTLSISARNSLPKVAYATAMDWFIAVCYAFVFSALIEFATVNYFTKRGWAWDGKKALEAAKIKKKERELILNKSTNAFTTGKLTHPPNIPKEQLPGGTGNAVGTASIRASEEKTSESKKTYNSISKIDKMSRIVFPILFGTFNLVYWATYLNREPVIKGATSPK
T6 sequence (P63138 25-474 partner limits assumed): as the sequence (P63138 25-474 partner limits assumed) above
T6 sequence (P18508 39-466): as the sequence (P18508 39-466) above
Protocol: as §1, §2

α5β2γ3 GABAA-R = biological target: T7, α5β2γ3 GABAA-R (Rattus norvegicus, UniProt P19969+P28473); test: biochemical; assay type: binding
T7 construct: expressed in transfected cells; host or cells: HEK293 (CRL 1573), transient transfection
T7 sequence (P19969 32-464 limits assumed): as the sequence (P19969 32-464 limits assumed) above
T7 sequence (P63138 25-474 partner limits assumed): as the sequence (P63138 25-474 partner limits assumed) above
T7 sequence (P28473 18-467): as the sequence (P28473 18-467) above
Protocol: as §1, §2

α1β2γ2S GABAA-R [5] = biological target: T1, α1β2γ2S GABAA-R; test: cell-based
Protocol: (§3) cRNAs encoding GABAA-R α1, α2, α3, α5, β2 and γ2S subunits were injected into oocytes from Xenopus laevis. […] GABA (Sigma) was prepared as a 1 M stock solution in ND96. Microelectrodes of 1–3 MΩ when filled with 3 M KCl were used to record from oocytes in a recording chamber continuously perfused with ND-96 buffer solution. During data acquisition, oocytes were clamped at a holding potential of -70 mV. Drugs were applied by perfusion at a rate of approximately 50 μl sec^-1 for 20 s followed by a 120 s wash. […] All experiments were performed at room temperature (22–24°C).
(§4) GABA concentration-response data was obtained for each subunit combination, and the GABA EC10 was determined by nonlinear regression using the logistic equation. This concentration of GABA was used for modulation studies. Peak current measurements were normalized and expressed as a fraction of the peak control current measurements. Control responses to an EC10 concentration of GABA were re-determined after every 2 – 4 applications of modulator + GABA. […] Potentiation data from each oocyte was fitted to the equation Potentiation = Emax × [Drug]/([Drug + EC50) by non-linear regression (Prism, Graph-Pad software). […] Given the lack of consistency of this possible high affinity effect, we have omitted it in fitting our concentration-effect curves. The choice of fitting to a monophasic or biphasic equation had only a small effect on the EC50 for the major component of modulation.
(§5) Rat GABAA-Rs consisting of α1β2γ2S, α2β2γ2S, α3β2γ2S and α5β2γ2S subunits were expressed in Xenopus oocytes. […] Higher concentrations (in parentheses) were excluded from the fit due to a decline in potentiation at higher concentrations.

α2β2γ2S GABAA-R [6] = biological target: T3, α2β2γ2S GABAA-R; test: cell-based
Protocol: as §3, §4, §5

α5β2γ2S GABAA-R [7] = biological target: T6, α5β2γ2S GABAA-R; test: cell-based
Protocol: as §3, §4, §5

α3β2γ2S GABAA-R [8] = biological target: T5, α3β2γ2S GABAA-R; test: cell-based; assay type: cell-based
Protocol: as §3, §4, §5

in vivo = assay type: in vivo, rat; conditions: rats, 1 h after administration of ocinaplon 5 mg/kg
Protocol: At 1 h, corresponding to the time at which the anticonflict effect of ocinaplon was evaluated, the plasma concentration of DOV 315,090 is ~38% of the concentration of parent compound.
Figure 2 Pharmacokinetics of ocinaplon and DOV 315,090. Blood levels of ocinaplon (●,○) and DOV 315090 (▲,△) were determined at various times after i.v. (●,▲) or oral (○,△) administration of 5 mg/kg ocinaplon to rats. […] This animal may have regurgitated a portion of the dose (of the suspension).

[9] = [3H]Ro15-1788 displacement, n = 3, read-out: IC50
[10] = mean ± SEM, n = 3, read-out: pIC50 (converted)

In the case of `O=C(c1ccccn1)c1cnn2c(-c3cc[n+]([O-])cc3)ccnc12` [DOV 315,090, (7-(1-Oxidopyridin-1-ium-4-yl)pyrazolo [1,5-a]pyrimidin-3-yl)(pyridin-2-yl)methanone], the IC50 (α1β2γ2S GABAA-R [1]; [9]) is reported as 7 µM, the IC50 (α1β2γ2S GABAA-R [1]; [10]) is reported as 6.46 µM and the “IC50/DZ IC50” value (α1β2γ2S GABAA-R [1]; ratio to diazepam IC50) is reported as 220. The “IC50/OC IC50” value (α1β2γ2S GABAA-R [1]; ratio to ocinaplon IC50) was 1.02, the IC50 (α1β2γ3 GABAA-R; [3H]Ro15-1788 displacement, α1β2γ3, n = 3, read-out: IC50) was 5.5 µM and the IC50 (α1β2γ3 GABAA-R; α1β2γ3, mean ± SEM, n = 3, read-out: pIC50 (converted)) was 5.37 µM. For the same compound, the “IC50/DZ IC50” value (α1β2γ3 GABAA-R; α1β2γ3, ratio to diazepam IC50) was 25, the “IC50/OC IC50” value (α1β2γ3 GABAA-R; α1β2γ3, ratio to ocinaplon IC50) was 2.40 and the IC50 (α2β2γ2S GABAA-R [2]; [9]) was 24 µM. The IC50 (α2β2γ2S GABAA-R [2]; [10]) was 23.4 µM, the “IC50/DZ IC50” value (α2β2γ2S GABAA-R [2]; ratio to diazepam IC50) was 760 and the “IC50/OC IC50” value (α2β2γ2S GABAA-R [2]; ratio to ocinaplon IC50) was 0.89. For the same compound, the IC50 (α2β2γ3 GABAA-R; [3H]Ro15-1788 displacement, α2β2γ3, n = 3, read-out: IC50) was 20 µM, the IC50 (α2β2γ3 GABAA-R; α2β2γ3, mean ± SEM, n = 3, read-out: pIC50 (converted)) was 19.1 µM and the “IC50/DZ IC50” value (α2β2γ3 GABAA-R; α2β2γ3, ratio to diazepam IC50) was 120. The “IC50/OC IC50” value (α2β2γ3 GABAA-R; α2β2γ3, ratio to ocinaplon IC50) was 0.98, the IC50 (α3β2γ2S GABAA-R [3]; [9]) was 9.3 µM and the IC50 (α3β2γ2S GABAA-R [3]; [10]) was 8.32 µM. The “IC50/DZ IC50” value (α3β2γ2S GABAA-R [3]; ratio to diazepam IC50) was 170, the “IC50/OC IC50” value (α3β2γ2S GABAA-R [3]; ratio to ocinaplon IC50) was 1.09 and the IC50 (α5β2γ2S GABAA-R [4]; [9]) was 22 µM. The IC50 (α5β2γ2S GABAA-R [4]; [10]) was 21.4 µM, the “IC50/DZ IC50” value (α5β2γ2S GABAA-R [4]; ratio to diazepam IC50) was 790 and the “IC50/OC IC50” value (α5β2γ2S GABAA-R [4]; ratio to ocinaplon IC50) was 2.24. For the same compound, the IC50 (α5β2γ3 GABAA-R; [3H]Ro15-1788 displacement, α5β2γ3, n = 3, read-out: IC50) was 27 µM, the IC50 (α5β2γ3 GABAA-R; α5β2γ3, mean ± SEM, n = 3, read-out: pIC50 (converted)) was 26.3 µM and the “IC50/DZ IC50” value (α5β2γ3 GABAA-R; α5β2γ3, ratio to diazepam IC50) was 323. For the same compound, the “IC50/OC IC50” value (α5β2γ3 GABAA-R; α5β2γ3, ratio to ocinaplon IC50) was 2.59, the Emax (α1β2γ2S GABAA-R [5]) was 192 ± 4% and the EC50 (α1β2γ2S GABAA-R [5]; α1β2γ2S, GABA EC10, number of oocytes in parentheses, read-out: EC50) was 4.87 µM. The “EC50/DZ EC50” value (α1β2γ2S GABAA-R [5]; α1β2γ2S, ratio to diazepam EC50) was 128, the “Emax/DZ Emax” value (α1β2γ2S GABAA-R [5]; α1β2γ2S, ratio to diazepam Emax) was 1.33 and the “EC50/OC EC50” value (α1β2γ2S GABAA-R [5]; α1β2γ2S, ratio to ocinaplon EC50) was 1.66. For the same compound, the “Emax/OC Emax” value (α1β2γ2S GABAA-R [5]; α1β2γ2S, ratio to ocinaplon Emax) was 1.45, the Emax (α2β2γ2S GABAA-R [6]) was 139 ± 23% and the EC50 (α2β2γ2S GABAA-R [6]; α2β2γ2S, GABA EC10, mean ± SEM, read-out: pEC50 (converted)) was 12 µM. The EC50 (α2β2γ2S GABAA-R [6]; α2β2γ2S, GABA EC10, number of oocytes in parentheses, read-out: EC50) was 12.5 µM, the “EC50/DZ EC50” value (α2β2γ2S GABAA-R [6]; α2β2γ2S, ratio to diazepam EC50) was 482 and the “Emax/DZ Emax” value (α2β2γ2S GABAA-R [6]; α2β2γ2S, ratio to diazepam Emax) was 0.88. The “EC50/OC EC50” value (α2β2γ2S GABAA-R [6]; α2β2γ2S, ratio to ocinaplon EC50) was 1.37, the “Emax/OC Emax” value (α2β2γ2S GABAA-R [6]; α2β2γ2S, ratio to ocinaplon Emax) was 0.92 and the Emax (α5β2γ2S GABAA-R [7]) was 68 ± 8%. The EC50 (α5β2γ2S GABAA-R [7]; α5β2γ2S, GABA EC10, mean ± SEM, read-out: pEC50 (converted)) was 9.33 µM, the EC50 (α5β2γ2S GABAA-R [7]; α5β2γ2S, GABA EC10, number of oocytes in parentheses, read-out: EC50) was 10.1 µM and the “EC50/DZ EC50” value (α5β2γ2S GABAA-R [7]; α5β2γ2S, ratio to diazepam EC50) was 405. For the same compound, the “Emax/DZ Emax” value (α5β2γ2S GABAA-R [7]; α5β2γ2S, ratio to diazepam Emax) was 0.30, the “EC50/OC EC50” value (α5β2γ2S GABAA-R [7]; α5β2γ2S, ratio to ocinaplon EC50) was 2.92 and the “Emax/OC Emax” value (α5β2γ2S GABAA-R [7]; α5β2γ2S, ratio to ocinaplon Emax) was 0.81. For the same compound, the Emax (α3β2γ2S GABAA-R [8]) was 340 ± 35%, the EC50 (α3β2γ2S GABAA-R [8]; α3β2γ2S, GABA EC10, mean ± SEM, read-out: pEC50 (converted)) was 10 µM and the EC50 (α3β2γ2S GABAA-R [8]; α3β2γ2S, GABA EC10, number of oocytes in parentheses, read-out: EC50) was 10.2 µM. For the same compound, the “EC50/DZ EC50” value (α3β2γ2S GABAA-R [8]; α3β2γ2S, ratio to diazepam EC50) was 111, the “Emax/DZ Emax” value (α3β2γ2S GABAA-R [8]; α3β2γ2S, ratio to diazepam Emax) was 1.46 and the “EC50/OC EC50” value (α3β2γ2S GABAA-R [8]; α3β2γ2S, ratio to ocinaplon EC50) was 1.27. For the same compound, the “Emax/OC Emax” value (α3β2γ2S GABAA-R [8]; α3β2γ2S, ratio to ocinaplon Emax) was ~1.87 and the “plasma concentration as % of the concentration of parent compound (ocinaplon)” value (in vivo) was ~ 38% and 38%.
